Measured values from patent publication US20240287048A1, “SUBSTITUTED ACYL SULFONAMIDES FOR TREATING CANCER” (The Broad Institute, Inc., priority 2020, published 2024).

How the values were obtained:
KAT6A = target: T1, KAT6A (Homo sapiens, UniProt Q92794); test: Kat6a activity assay (TR-FRET, acetylation of biotinylated histone H4 peptide); type: biochemical; conditions: recombinant human His-tagged Kat6a (amino acids 194-810), 60 mins at 22° C., read-out: KAT6A-DPF/HAT domain IC50 [mol/l] (arithmetic mean)
T1 construct: Recombinant human His-tagged Kat6a protein (amino acids 194-810); His; made in house; host or cells: Baculovirus-infected Sf9 insect cells
T1 sequence (Q92794 194-810): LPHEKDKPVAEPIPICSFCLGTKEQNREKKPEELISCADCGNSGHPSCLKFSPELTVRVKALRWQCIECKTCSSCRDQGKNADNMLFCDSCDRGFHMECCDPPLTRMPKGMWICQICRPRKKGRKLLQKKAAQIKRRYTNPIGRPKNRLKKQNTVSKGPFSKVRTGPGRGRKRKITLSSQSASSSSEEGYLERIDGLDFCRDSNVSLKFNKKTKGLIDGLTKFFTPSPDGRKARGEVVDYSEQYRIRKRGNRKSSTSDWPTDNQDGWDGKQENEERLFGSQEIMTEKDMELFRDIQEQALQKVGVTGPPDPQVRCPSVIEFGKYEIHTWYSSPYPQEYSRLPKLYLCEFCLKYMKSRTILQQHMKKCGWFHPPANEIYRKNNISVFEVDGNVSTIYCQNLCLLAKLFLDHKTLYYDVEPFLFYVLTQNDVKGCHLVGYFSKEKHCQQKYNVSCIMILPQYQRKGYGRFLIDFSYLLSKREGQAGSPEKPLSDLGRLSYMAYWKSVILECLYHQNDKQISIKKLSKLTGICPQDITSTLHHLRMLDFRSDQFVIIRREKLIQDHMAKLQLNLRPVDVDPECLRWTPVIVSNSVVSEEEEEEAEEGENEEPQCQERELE
Source text: Kat6a inhibitory activities of the compounds described in the present invention were quantified using a Fluorescence Resonance Energy Transfer (TR-FRET) assay which measures acetylation of a synthetic, biotinylated Histone-H4-derived peptide by the enzyme.
Recombinant human His-tagged Kat6a protein (amino acids 194-810), was purified in-house from Baculovirus-infected insect cells (Sf9). Histone H4 peptide (amino acids 1-24, […]-VLRD-K(Btn)-amide), which was used as substrate, was synthesized by Biosyntan GmbH, Berlin, Germany. Acetyl Coenzyme A was purchased from Sigma-Aldrich (#A-2056).
(§1) Kat6a was incubated for 60 mins at 22° C. in the presence of different concentrations of test substances (0 μM, and within the range 0.01-20 μM) in assay buffer [25 mM Tris/HCl pH 8, 1 mM EGTA, 2.5 mM Glutathion, 0.02% Chicken Albumin, 0.05% Pluronic F127, 25 mM NaCl, 220 nM H4 peptide and 600 nM Acetyl Coenzyme A].
The reaction was stopped by addition of Detection Solution (25 mM HEPES pH 7.5, 0.1% BSA, 22 nM SAXL665 (Cisbio #610SAXLE), 100 μM Anacardic Acid (Enzo #ALX-270-381), 1 nM Anti-Histone H4 (ACETYL K8) Antibody (ABCAM #AB15823) and 0.5 nM Anti-Rabbit IgG Eu (Perkin Elmer #AD0083).
(§2) The fluorescence emission at 620 nm and 665 nm after excitation at 330-350 nm was measured in a TR-FRET measuring instrument, for instance a Rubystar or a Pherastar (both from BMG Lab Technologies, Offenburg, Germany) or a Viewlux (Perkin-Elmer). The ratio of the emission at 665 nm and at […] was used as indicator of the amount of acetylated peptide.
(§3) The resulting data (ratio) were normalized, taking 0% inhibition as the mean value of control measurements where all reagents were included. In this case 50 nl DMSO were used instead of compounds. […] IC50 values were determined by regression analysis based on a 4 parameter equation (minimum, maximum, ICM, Hill; Y=Max+(Min−Max)/(1+(X/ICso) Hill) using the Screener Software (Genedata).

KAT6B = target: T2, KAT6B (Homo sapiens, UniProt Q8WYB5); test: Kat6b activity assay (TR-FRET, acetylation of biotinylated histone H4 peptide); type: biochemical; conditions: recombinant human GST-tagged Kat6b (431-end), 30 mins at 22° C., read-out: KAT6B activity assay IC50 [mol/l] (arithmetic mean)
T2 construct: fused on or other part: N-terminal GST tag
T2 sequence (Q8WYB5 723-2073 limits assumed): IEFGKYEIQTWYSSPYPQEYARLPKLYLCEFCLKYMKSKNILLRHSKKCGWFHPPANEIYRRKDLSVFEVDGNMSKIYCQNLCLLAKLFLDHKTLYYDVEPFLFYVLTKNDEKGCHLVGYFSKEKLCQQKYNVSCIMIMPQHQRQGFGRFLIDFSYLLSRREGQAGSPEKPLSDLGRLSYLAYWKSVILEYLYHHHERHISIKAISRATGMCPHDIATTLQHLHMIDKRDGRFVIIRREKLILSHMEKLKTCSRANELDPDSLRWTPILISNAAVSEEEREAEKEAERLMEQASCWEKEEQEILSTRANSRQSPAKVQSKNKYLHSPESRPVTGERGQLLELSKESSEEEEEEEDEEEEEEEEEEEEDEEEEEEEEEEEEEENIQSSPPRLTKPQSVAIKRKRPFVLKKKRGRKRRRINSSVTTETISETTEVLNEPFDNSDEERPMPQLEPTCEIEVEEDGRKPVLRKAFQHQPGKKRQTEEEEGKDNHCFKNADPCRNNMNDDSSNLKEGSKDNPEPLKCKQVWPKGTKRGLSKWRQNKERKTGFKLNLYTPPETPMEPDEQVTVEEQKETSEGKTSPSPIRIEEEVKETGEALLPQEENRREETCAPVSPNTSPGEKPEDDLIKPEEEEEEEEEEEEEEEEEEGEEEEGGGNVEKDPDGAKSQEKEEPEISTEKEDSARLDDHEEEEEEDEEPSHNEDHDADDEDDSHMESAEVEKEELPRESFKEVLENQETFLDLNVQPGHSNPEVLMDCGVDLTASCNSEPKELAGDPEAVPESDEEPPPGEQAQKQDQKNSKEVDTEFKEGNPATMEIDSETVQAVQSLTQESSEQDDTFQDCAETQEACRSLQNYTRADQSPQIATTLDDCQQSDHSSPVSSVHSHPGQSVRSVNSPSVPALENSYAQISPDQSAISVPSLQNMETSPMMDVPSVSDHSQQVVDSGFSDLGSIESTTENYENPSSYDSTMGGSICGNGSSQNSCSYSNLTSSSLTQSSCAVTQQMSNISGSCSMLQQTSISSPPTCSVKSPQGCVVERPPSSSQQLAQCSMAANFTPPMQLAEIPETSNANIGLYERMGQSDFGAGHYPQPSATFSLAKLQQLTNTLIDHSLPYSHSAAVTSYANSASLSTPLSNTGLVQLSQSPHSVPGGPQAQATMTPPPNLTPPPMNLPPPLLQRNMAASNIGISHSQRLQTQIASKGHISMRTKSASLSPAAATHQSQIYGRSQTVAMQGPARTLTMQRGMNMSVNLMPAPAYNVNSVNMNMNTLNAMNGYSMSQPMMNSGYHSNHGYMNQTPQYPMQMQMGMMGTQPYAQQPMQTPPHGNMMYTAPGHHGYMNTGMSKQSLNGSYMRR
Source text: Kat6b inhibitory activities of the compounds described in the present invention were quantified using a Fluorescence Resonance Energy Transfer (TR-FRET) assay which measures acetylation of a synthetic, biotinylated Histone-H4-derived peptide by the enzyme.
Recombinant human GST-tagged Kat6b protein (431-end, N-terminal GST-tag), purified from Baculovirus-infected insect cells (Sf9), was purchased from SignalChem (#K315-381BG). Histone H4 peptide (amino acids 1-24, […]-VLRD-K(Btn)-amide), which was used as substrate, was synthesized by Biosyntan GmbH, Berlin, Germany. Acetyl Coenzyme A was purchased from Sigma-Aldrich (#A-2056).
as §1, with “Kat6b was” for “Kat6a was”, “for 30” for “for 60”, “NaCl, 500” for “NaCl, 220”
The reaction was stopped by addition of Detection Solution (25 mM HEPES pH 7.5, 0.1% BSA, 22 nM SAXL665 (Cisbio #610SAXLE), 100 μM Anacardic Acid (Enzo #ALX-270-381), 1 nM Anti-Histone H4 (ACETYL K8) Antibody (ABCAM #AB15823), 0.5 nM Anti-Rabbit IgG Eu (Perkin Elmer #AD0083).
as §2, §3

[1] = tested on: ESR1 transcription in MVLN cells; test: Repression of ESR1 transcription, MVLN luciferase reporter assay; type: cell-based; conditions: Homo sapiens, luciferase signal after 24 h, read-out: MVLN reporter assay, IC50[M] (arithmetic mean)
Source text: KAT6A controls transcription of the ESR1 gene in breast cancer cells. Compound treatment that interferes with this mechanism was quantified using MVLN cells. These cells constitutively express the ER and are stably transfected with the luciferase (LUC) reporter gene and the corresponding hormone responsive element derived from the 5′-flanking region of the Xenopus Vitellogenin A2 gene (Pons et al., 1990, Demirpense et al., 1993, Joyeux et al., 1993). The repressive effect on ERα transcription activity of a test chemical is directly related to the luciferase measured in the lysate of treated MVLN cells.
Each sample was prepared as duplicate and rim wells were excluded. For luciferase signal determination 100 μl of a 1:1 mixture of Steadylite plus (Perkin Elmer; 6016759) and assay medium was added after 24 h for 15 minutes and measured in Victor X3 (Perkin Elmer). To exclude any effects caused by cell loss during the treatment, cell density was determined using Alamar Blue (Invitrogen; DAL1100). Prior to the luciferase measurement 10 μl Alamar Blue were added to each well and the plates were incubated for 2 h in the incubator. Then fluorescence was measured with Victor X3 (Perkin Elmer) at 530 nm/590 nm.

ZR-75-1 cells = test: Proliferation assay in ZR-75-1 cells; type: cell-based; conditions: Homo sapiens, 144 h, Alamar Blue, read-out: ZR75-1 proliferation assay, EC50[M] (arithmetic mean)
Source text: (§4) For compound characterization cell survival assays were routinely run in two cell lines. ZR-75-1 is a breast carcinoma cell line containing a focal KAT6A amplification and high KAT6A protein expression. Proliferation of this cell line is inhibited upon treatment with KAT6A inhibitors. As a negative control cell line MDA-MB-436 were used. These cells carry a […] deletion of the KAT6A gene, have a low KAT6A protein expression and are not growth inhibited upon treatment with KAT6A inhibitors.
(§5) For measurements cell lines were plated at the below indicated concentration per […] in 96-well plates in a humidified incubator at 37° C. and 5% CO2.
(§6) ZR-75-1 (ATCC, CRL-1500; breast carcinoma); 3000 cells per well; culture medium: RPMI 1640 (Biochrom #FG 1215) medium containing 2.5% FBS (Biochrom #S0615). LCLC-97TM1 (DSMZ, ACC 388; large cell lung carcinoma); 6000 cells per well; culture medium: RPMI 1640 (Biochrom #FG 1215) medium containing 2.5% FBS (Biochrom #S0615). MDA-MB-436 (CLS, 300278; breast adenocarcinoma); 3000 cells per well; culture medium: DMEM/Ham's F12 (Biochrom #FG 4815) medium containing 2.5% FBS (Biochrom #S0615).
(§7) Each sample was prepared as triplicate and rim wells were excluded. Plates were incubated at 37° C. and 5% CO2 for 144 h. Cell viability was measured by adding 10 μL of Alamar Blue Reagent (Invitrogen #DAL 1100) and plates were incubated for 2 h at 37° C. and 5% CO2. Fluorescence was measured at 590 nm wavelength with a Tecan Spark or Victor X3 MTP-Reader (PerkinElmer).

MDA-MB-436 cells = test: Proliferation assay in MDA-MB-436 cells (negative control cell line); type: cell-based; conditions: Homo sapiens, 144 h, Alamar Blue, read-out: MDA-MB-436 proliferation assay, EC50[M] (arithmetic mean)
Source text: as §4, §5, §6, §7

LCLC-97TM1 cells = test: Proliferation assay in LCLC-97TM1 cells; type: cell-based; conditions: Homo sapiens, 144 h, Alamar Blue, read-out: LCLC97TM1 proliferation assay, EC50[M] (arithmetic mean)
Procedure: as §5, §6, §7

Row | SMILES | IC50 (KAT6A) [nM] | IC50 (KAT6B) [nM] | IC50 [1] [M] | EC50 (MDA-MB-436 cells) [M] | EC50 (ZR-75-1 cells) [M] | EC50 (LCLC-97TM1 cells) [M]
1 | Cc1cc(C)c2cc(C(=O)NS(=O)(=O)c3ccccc3-c3ccccc3C)oc2c1 [Example 6, 4,6-Dimethyl-N-(2′-methyl[1,1′-biphenyl]-2-sulfonyl)-1-benzofuran-2-carboxamide] | 128 | 245 | 5.55e-06 | > 2e-05 | > 2e-05 | –
2 | O=C(NS(=O)(=O)c1ccccc1-c1ccccc1)c1cc2ccc(C(F)F)cc2o1 [Example 17, N-([1,1′-Biphenyl]-2-sulfonyl)-6-(difluoromethyl)-1-benzofuran-2-carboxamide] | 1300 | 2580 | – | > 2e-05 | 6.12e-06 | –
3 | Cc1ccc2cccc(S(=O)(=O)NC(=O)c3cc4c(F)cc(C5CC5)cc4o3)c2n1 [Example 22, 6-Cyclopropyl-4-fluoro-N-(2-methylquinoline-8-sulfonyl)-1-benzofuran-2-carboxamide] | 9.48 | 22.5 | 2.81e-07 | – | 1.26e-06 | –
4 | COCCc1ccc2cc(C(=O)NS(=O)(=O)c3ccccc3-c3ccccc3)oc2c1 [Example 26, N-([1,1′-biphenyl]-2-sulfonyl)-6-(2-methoxyethyl)-1-benzofuran-2-carboxamide] | 1130 | 2850 | 1.56e-05 | – | – | –
5 | CCOc1ccccc1S(=O)(=O)NC(=O)c1cc2c(N(C)C)cc(C3CC3)cc2o1 [Example 45, 6-Cyclopropyl-4-(dimethylamino)-N-(2-ethoxyphenyl)sulfonyl-benzofuran-2-carboxamide] | 79.9 | – | 1.68e-05 | > 2e-05 | > 2e-05 | > 2e-05
6 | Cc1ccc2cccc(S(=O)(=O)NC(=O)c3cc4c(OC(F)F)cc(C5CC5)cc4o3)c2n1 [Example 47, 6-Cyclopropyl-4-(difluoromethoxy)-N-[(2-methyl-8-quinolyl)sulfonyl]benzofuran-2-carboxamide] | 4.78 | – | 4.65e-06 | > 2e-05 | 3.24e-06 | > 2e-05
7 | COc1ccc(C(C)(C)C)cc1S(=O)(=O)NC(=O)c1cc2c(F)cc(C3CC3)cc2o1 [Example 66, N-((5-(tert-butyl)-2-methoxyphenyl)sulfonyl)-6-cyclopropyl-4-fluorobenzofuran-2-carboxamide] | 3.31 | – | 4.96e-08 | > 2e-05 | 1.76e-07 | 2.64e-07

The remaining compounds from weak to strong by IC50 (KAT6A), led by results:

Row | IC50 (KAT6A) [nM] | IC50 (KAT6B) [nM] | IC50 [1] [M] | EC50 (MDA-MB-436 cells) [M] | SMILES | EC50 (ZR-75-1 cells) [M] | EC50 (LCLC-97TM1 cells) [M]
8 | 3380 | 4790 | 1.31e-05 | – | O=C(NS(=O)(=O)c1ccccc1-c1ccccc1)c1cc2ccc(-c3ccc(F)cc3)cc2o1 [Example 1, N-([1,1′-biphenyl]-2-sulfonyl)-6-(4-fluorophenyl)-1-benzofuran-2-carboxamide] | – | –
9 | 882 | 2220 | 1.11e-05 | > 2e-05 | Cc1ccc2cc(C(=O)NS(=O)(=O)c3ccccc3-c3ccccc3)oc2c1 [Example 2, N-([1,1′-biphenyl]-2-sulfonyl)-6-methyl-1-benzofuran-2-carboxamide] | > 2e-05 | –
10 | 86.5 | 114 | 4.54e-06 | > 2e-05 | Cc1ccc(S(=O)(=O)NC(=O)c2cc3c(C)cc(C)cc3o2)c(-c2ccccc2)c1 [Example 7, 4,6-Dimethyl-N-(5-methyl[1,1′-biphenyl]-2-sulfonyl)-1-benzofuran-2-carboxamide] | > 2e-05 | –
11 | 52 | – | 1.16e-05 | > 2e-05 | CN(C)c1cc(C2CC2)cc2oc(C(=O)NS(=O)(=O)c3ccccc3-c3ccccc3)cc12 [Example 44, 6-Cyclopropyl-4-(dimethylamino)-N-(2-phenylphenyl)sulfonyl-benzofuran-2-carboxamide] | 8.67e-06 | > 2e-05
12 | 14.1 | 19 | 2.47e-07 | – | O=C(NS(=O)(=O)c1ccccc1OC1CC1)c1cc2c(F)cc(C3CC3)cc2o1 [Example 24, 6-Cyclopropyl-N-[2-(cyclopropyloxy)benzene-1-sulfonyl]-4-fluoro-1-benzofuran-2-carboxamide] | 6.74e-07 | –
13 | 13 | – | 6.92e-06 | > 2e-05 | Cc1ccc2cccc(S(=O)(=O)NC(=O)c3cc4c(N(C)C)cc(C5CC5)cc4o3)c2n1 [Example 43, 6-Cyclopropyl-4-(dimethylamino)-N-[(2-methyl-8-quinolyl)sulfonyl]benzofuran-2-carboxamide] | 5.64e-06 | > 2e-05
14 | 5.55 | – | 1.95e-06 | > 2e-05 | Cc1ccc2cccc(S(=O)(=O)NC(=O)c3cc4c(C(F)(F)F)cc(C5CC5)cc4o3)c2n1 [Example 50, 6-Cyclopropyl-N-[(2-methyl-8-quinolyl)sulfonyl]-4-(trifluoromethyl)benzofuran-2-carboximide] | 1.38e-05 | > 2e-05
